Laboratory results reported in the NIST ThermoML archive (doi:10.1016/j.jct.2006.01.011).

Columns and labels:
[1] = wn = mass fraction of the nth substance listed; settings: 293.15 K, 101.33 kPa, Liquid; for viscosity: Capillary tube (Ostwald / Ubbelohde) method; for mass density: Vibrating tube method
[2] = cn = amount concentration of the nth substance listed, in mol/dm3; settings: 293.15 K, 101 kPa, Liquid; for viscosity: Capillary tube (Ostwald / Ubbelohde) method; for electrical conductivity: Frequency=0.001 MHz, digital bridge-type conductivity meter; for mass density: Vibrating tube method
[3] = refractive index (Na D-line) (dimensionless); settings: 293.15 K; 101.33 kPa; Liquid; Standard Abbe refractometry
[4] = 293.15 K, 101.33 kPa, Liquid; for viscosity: Capillary tube (Ostwald / Ubbelohde) method

OCCO [1,2-ethanediol] + O
[1]
Settings | mass density [kg/m3] | viscosity [mPa·s]
w1 = 0.1 | 1011.1 | 1.293
w1 = 0.2 | 1024.49 | 1.671
w1 = 0.3 | – | 2.177
w1 = 0.4 | 1049.89 | 2.837
w1 = 0.5 | 1062.42 | 3.558
w1 = 0.6 | – | 4.724
w1 = 0.7 | 1085.2 | 6.36
w1 = 0.8 | 1095.34 | 8.003
w1 = 0.9 | 1103.7 | 14

O=S(=O)([O-])[O-].[Zn+2] [zinc sulfate] + O
[2]
Settings | electrical conductivity [S/m] | mass density [kg/m3] | viscosity [mPa·s]
c1 = 5e-05 | 0.00119 | 998.22 | –
c1 = 0.00011 | 0.00229 | 998.23 | –
c1 = 0.00019 | 0.00391 | 998.25 | –
c1 = 0.00042 | 0.0084 | 998.29 | –
c1 = 0.00063 | 0.01218 | 998.32 | –
c1 = 0.00083 | 0.0154 | 998.36 | –
c1 = 0.00101 | 0.01833 | 998.39 | –
c1 = 0.00127 | 0.02201 | 998.41 | –
c1 = 0.0084 | – | 999.63 | 1.015
c1 = 0.0194 | – | 1001.48 | 1.022
c1 = 0.0403 | – | 1004.95 | 1.036
c1 = 0.0545 | – | 1007.37 | 1.045
c1 = 0.0714 | – | 1009.43 | 1.054
c1 = 0.0795 | – | 1011.4 | 1.062
c1 = 0.0979 | – | 1014.39 | 1.074
c1 = 0.1391 | – | 1021.1 | 1.103
c1 = 0.1756 | – | 1027.12 | 1.127
c1 = 0.1998 | – | 1030.93 | 1.144

O [water] + OCCO
Settings | viscosity [mPa·s]
[1], w2 = 0 | 1.008

OCCO [1,2-ethanediol]
Settings | refractive index | viscosity [mPa·s]
[3] | 1.4319 | –
[4] | – | 20.81

Settings | mass density [kg/m3]
[4], Vibrating tube method | 1113.23

O [water]
Settings | viscosity [mPa·s]
[4] | 1.008
